Data set [1] addresses T1, B1 bradykinin receptor (Macaca mulatta, UniProt Q8HZP2).
T1 sequence (Q8HZP2 whole entry): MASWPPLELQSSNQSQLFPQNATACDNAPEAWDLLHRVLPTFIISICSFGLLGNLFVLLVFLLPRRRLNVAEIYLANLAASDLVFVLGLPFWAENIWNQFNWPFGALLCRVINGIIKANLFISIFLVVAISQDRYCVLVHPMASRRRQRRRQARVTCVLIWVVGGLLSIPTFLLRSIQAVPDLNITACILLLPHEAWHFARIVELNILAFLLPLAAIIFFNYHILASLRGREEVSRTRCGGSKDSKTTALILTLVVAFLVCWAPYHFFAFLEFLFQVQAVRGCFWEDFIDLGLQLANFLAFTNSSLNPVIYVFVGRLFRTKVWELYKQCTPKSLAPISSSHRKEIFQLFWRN
As to the kind of experiment: Binding affinity to monkey bradykinin B1 receptor.

The nature of data set [2]: Half life in Sprague-Dawley rat at 0.7 mg/kg, iv. It counts as ADME, organism-based. Also noted: dose 0.7 mg/kg, route intravenous. The note with it: in vivo.
Data set [3] in a line: Oral bioavailability in Sprague-Dawley rat at 7 mg/kg. It counts as ADME, organism-based. The note with it: in vivo.
The nature of data set [4]: Half life in Sprague-Dawley rat at 2 mg/kg, iv. It counts as ADME, organism-based. Also noted: dose 2 mg/kg, route intravenous. Conditions: in vivo.
Data set [5] concerns Rattus norvegicus. In words: Antiinflammatory activity in rat assessed as reversal of carrageenan-induced hyperalgesia at 3 mg/kg, ip. It is filed as functional. The note with it: route intraperitoneal.
In data set [6] the target is T2, B1 bradykinin receptor (Canis lupus familiaris, UniProt Q9BDQ5).
T2 sequence (Q9BDQ5 whole entry): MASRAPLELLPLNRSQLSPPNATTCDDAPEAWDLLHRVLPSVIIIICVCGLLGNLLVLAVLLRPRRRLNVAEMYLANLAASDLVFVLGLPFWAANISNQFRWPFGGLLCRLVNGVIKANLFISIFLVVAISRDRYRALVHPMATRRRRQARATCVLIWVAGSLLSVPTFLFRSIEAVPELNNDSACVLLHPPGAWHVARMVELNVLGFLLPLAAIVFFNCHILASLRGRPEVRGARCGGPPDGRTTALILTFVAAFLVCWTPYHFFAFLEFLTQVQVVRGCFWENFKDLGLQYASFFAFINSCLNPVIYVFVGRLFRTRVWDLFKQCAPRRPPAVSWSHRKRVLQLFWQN
In words: Antagonist activity at dog bradykinin B1 receptor. It is filed as functional.

In data set [7] the target is T3, B1 bradykinin receptor (Rattus norvegicus, UniProt P97583).
T3 sequence (P97583 whole entry): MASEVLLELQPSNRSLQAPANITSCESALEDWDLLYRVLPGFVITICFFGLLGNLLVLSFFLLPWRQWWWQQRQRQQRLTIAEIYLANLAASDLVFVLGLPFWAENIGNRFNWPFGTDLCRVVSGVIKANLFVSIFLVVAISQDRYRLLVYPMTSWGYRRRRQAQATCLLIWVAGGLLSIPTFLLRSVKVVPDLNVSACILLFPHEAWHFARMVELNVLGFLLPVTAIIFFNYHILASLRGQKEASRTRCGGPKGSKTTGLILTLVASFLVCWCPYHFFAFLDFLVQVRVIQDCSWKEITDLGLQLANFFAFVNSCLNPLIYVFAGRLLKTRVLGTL
In words: Inhibition of rat bradykinin B1 receptor.

Data set [8] addresses T4, B1 bradykinin receptor (Oryctolagus cuniculus, UniProt P48748).
T4 sequence (P48748 whole entry): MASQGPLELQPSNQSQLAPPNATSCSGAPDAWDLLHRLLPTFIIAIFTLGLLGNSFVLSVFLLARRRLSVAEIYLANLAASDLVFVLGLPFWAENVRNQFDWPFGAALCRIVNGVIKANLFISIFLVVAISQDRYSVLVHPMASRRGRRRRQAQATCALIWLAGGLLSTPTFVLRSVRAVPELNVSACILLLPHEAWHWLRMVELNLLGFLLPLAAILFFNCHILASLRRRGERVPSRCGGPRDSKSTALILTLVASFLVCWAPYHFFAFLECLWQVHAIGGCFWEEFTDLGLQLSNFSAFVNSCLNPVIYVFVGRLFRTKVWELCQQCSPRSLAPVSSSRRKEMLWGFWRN
In words: Inhibition of rabbit bradykinin B1 receptor.

Data set [9] addresses T5, B1 bradykinin receptor (Homo sapiens, UniProt P46663).
T5 sequence (P46663 whole entry): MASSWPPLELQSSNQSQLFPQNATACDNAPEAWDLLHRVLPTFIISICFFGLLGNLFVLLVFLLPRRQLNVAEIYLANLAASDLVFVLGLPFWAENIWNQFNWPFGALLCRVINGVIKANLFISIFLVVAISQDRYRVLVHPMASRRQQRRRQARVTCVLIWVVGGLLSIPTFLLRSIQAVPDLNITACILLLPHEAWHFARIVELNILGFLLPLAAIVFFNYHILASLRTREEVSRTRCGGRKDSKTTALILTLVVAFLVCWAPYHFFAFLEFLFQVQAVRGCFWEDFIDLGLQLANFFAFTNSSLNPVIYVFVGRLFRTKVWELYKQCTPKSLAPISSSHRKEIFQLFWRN
In words: Antagonist activity at human bradykinin B1 receptor in human MR5 cells assessed as [3H]inositol phosphate accumulation. It counts as functional, cell-based.

In general, pKi refers to the negative decadic logarithm of the Ki, by convention in mol/L. One may read the half-life as the time needed for the level to fall by half in the phase considered. Broadly, the bioavailability is dose-corrected exposure relative to a reference, in per cent. The pIC50 is the IC50 on a negative log10 scale, so that one unit is a factor of ten.

Each structure is given as a SMILES string. pIC50, pKi: −log10 of the molar value.

`CN1CCN(C(=O)C2CCN(S(=O)(=O)c3ccc(NCC(c4ccccc4)c4ccccc4)c(C(=O)N4CCOCC4)c3)CC2)CC1` showed a negative-log Ki (pKi) in data set [1] of 8.11. The same compound had a half-life in data set [2] of 2.7 h. In addition, the bioavailability in [3] was 42%. On to `CCCN1C(=O)[C@H](NC(=O)Nc2ccc(N3CCN(c4ccncc4)CC3)cc2)N=C(CCc2ccccc2)c2ccccc21`, for which the half-life in data set [4] is 2.7 h. The Activity in data set [5] came to 89%.

As for `O=C(C[C@@H]1C(=O)Nc2ccccc2N1S(=O)(=O)c1ccc(Cl)c(Cl)c1)NCCc1ccc(C2=NCCN2)cc1`, the pIC50 in data set [6] was 7.79; in data set [7], 6.79; in data set [8], 9.59. As for `O=C(NCCCN1CCCCC1)Nc1ccc(S(=O)(=O)Nc2ccccc2C(=O)c2ccccc2)cc1`, in data set [4], the half-life was 14 h. For `O=C(Nc1[nH]nc(C(=O)NCCC2CCN(c3ccncc3)CC2)c1Br)c1ccccc1Cl`, the pIC50 in data set [9] is 8.46. Consider `O=C(Nc1ccc(S(=O)(=O)Nc2ccccc2C(=O)c2ccccc2)cc1)OCC1CCCO1` (configuration not stated), for which the half-life in data set [4] was 9.7 h. Same read-out and setting: the same measure for `CC(=O)Nc1ccc(S(=O)(=O)Nc2ccccc2C(=O)c2ccccc2)cc1`: 0.3 h.
